{
  "source": "patent US11033572B2",
  "about": "“Molecular adjuvants for enhanced cytosolic delivery of active agents” (Universiteit Gent, priority 2017, dated 2021)",
  "type_in_all_cases": "cell-based",
  "key": {"H1299_eGFP cells [1]": {"tested_on": "H1299_eGFP cells", "test": "siNG transfection and sequential adjuvant treatment, eGFP silencing by flow cytometry"}, "H1299_eGFP cells [2]": {"tested_on": "H1299_eGFP cells", "test": "siPLK1-NG silencing evaluated through cell viability (CellTiter GLO)", "procedure": "(§1) The silencing potential of siPLK1-NGs was established through evaluating the cell viability. Hereto, we applied the CellTiter GLO® assay (Promega, Belgium) according to the manufacturer's guidelines. Before initiating the assay, the culture plates and reconstituted assay buffer were placed at room temperature for 30 minutes. Next, the culture medium was replaced by 250 μL fresh cell medium and an equal volume of assay buffer was added. To induce complete cell lysis, the plates were shaken during 2 minutes and the signal was allowed to stabilize the following 10 minutes. 100 μL from each well was subsequently transferred to an opaque 96-well plate, which was measured with a GloMax® 96 Microplate Luminometer (Promega, Belgium). Three biological replicates were performed and data are expressed as the mean cell viability±SEM.\nAll previous experiments were performed on the eGFP reporter gene. To evaluate whether our approach also works in a therapeutic setting we applied siRNA against Polo Like Kinase 1 (PLK1). […] To evaluate the PLK1 silencing we evaluated the effect on cell viability since both induction of cell cycle arrest or apoptosis would reduce the number of cells present compared to the untreated control."}, "H1299_eGFP cells [3]": {"tested_on": "H1299_eGFP cells", "test": "Cell viability following CAD incubation (CellTiter GLO)", "procedure": "as §1\nPlease note that we only applied siCTRL-loaded NGs in this set of experiments. With the interest of evaluating the possible effect of our treatment on cell viability, the CellTiter GLO® assay was performed as described above. Again, three biological replicates were performed and data are expressed as the mean±SEM."}, "H1299_WT cells [4]": {"tested_on": "H1299_WT cells", "test": "Release of FITC-dextrans into the cytosol (confocal microscopy)", "settings": "40 μM, 20 h, 10 kDa FITC-dextran; listed as DL", "procedure": "To visualize the FITC-dextran release, a 1 mg/mL dispersion of 10 kDa FITC-dextrans (Sigma-Aldrich, Belgium) in complete cell medium was added during 1 hour at 37° C. in a humidified atmosphere containing 5% CO2. To assess oligonucleotide escape, the NGs were first loaded with 100 nM Alexa Fluor 647-labeled oligonucleotides (21-mer) (Eurogentec, Belgium) according to the procedure described for siRNA complexation. Of note, these oligonucleotides transfer to the nucleus upon release into the cytosol (Rehman et al., ACS Nano, 2013). Following four hours of NG transfection or 1 h incubation with FITC-dextrans, the cells were washed with PBS and received 1.5 mL fresh cell medium with or without 10, 20 or 40 μM DL. After an additional incubation period of 20 hours, the cell medium was removed and nuclei were labeled with Hoechst (Molecular Probes™, Belgium) in cell medium during 15 minutes at 37° C. […]\nThe samples were imaged using a laser scanning confocal microscope (LSCM, C1si, Nikon) and a 60× oil immersion Plan Apo objective (Nikon, Belgium). […] During data analysis with the ImageJ image processing software (NIH) both the total cell number and amount of cells with a diffuse FITC-dextran labeling or oligonucleotide-positive nuclei were counted. […]"}, "H1299_WT cells [5]": {"tested_on": "H1299_WT cells", "test": "Phospholipidosis detection with LipidTOX Red", "settings": "20 h incubation", "procedure": "H1299_WT cells were seeded and allowed to settle overnight as detailed previously. Next, the cells were incubated with a mixture of a 1/1000 dilution of the LipidTOX™ red phospholipidosis detection reagent (Thermo Fisher Scientific, USA) and the desired CAD in complete cell medium. Upon 20 hour incubation, the cells were fixed with 4% PFA and stored at 4° C. covered in Vectashield antifade mounting medium containing DAPI. Imaging occurred with a LSCM and a 100× oil immersion objective. DAPI and the LipidTOX™ red phospholipidosis dye were respectively excited with the 408 nm and 561 nm laser lines and the signal intensity was determined with Image J in minimum 30 cells from 5 images per condition."}, "H1299_eGFP cells [6]": {"tested_on": "H1299_eGFP cells", "test": "Side scatter (cellular granularity) by flow cytometry", "procedure": "For silencing experiments, H1299_eGFP cells were seeded in 24 well plates at a density of 35000 cells/well and were allowed to settle overnight. Subsequently, the cells were transfected and treated with small molecular adjuvants as described previously. Note that for every siEGFP or siPLK1 condition an siCTRL sample was included to account for potential off target effects. SiNG-mediated eGFP silencing was determined by flow cytometry. […] The cells were collected, centrifuged during 5 minutes at 300 g, resuspended in 300 μL flow buffer and kept on ice until analysis. For each sample the forward and side scatter as well as the green fluorescent signal were measured for at least 5000 cells."}},
  "data": [
    {"smiles": "Clc1ccc2c(c1)CCc1cccnc1C2=C1CCNCC1", "note": "[(3) Desloratadine, Desloratadine]", "values": [
      {"measurement": "siNG-mediated gene silencing, 2 h versus 20 h incubation", "setting": "H1299_eGFP cells [1]; incubation 2 h or 20 h", "value": "improve siNG-mediated gene silencing to a similar extent"},
      {"measurement": "adjuvant effect on siNG-mediated eGFP silencing", "setting": "H1299_eGFP cells [1]; sequential treatment 10, 20 or 40 μM, 20 h, siNGs 2 nM siRNA", "value": "significant additional silencing"},
      {"measurement": "cell viability", "setting": "H1299_eGFP cells [2]; 1 nM siPLK1-NG, second 40 μM treatment", "value": "~50", "unit": "%"},
      {"measurement": "viability at 40 µM", "setting": "H1299_eGFP cells [2]; 1 nM siPLK1-NG, single 40 μM treatment, 2 h", "value": "~60", "unit": "%"},
      {"measurement": "effect on cell viability reduction", "setting": "H1299_eGFP cells [2]; 10 nM siPLK1-NG, single 2-hour treatment", "value": "maximal effect on cell viability reduction"},
      {"measurement": "additional cytotoxicity compared to siNGs alone", "setting": "H1299_eGFP cells [3]", "value": "did not cause any additional cytotoxicity"},
      {"measurement": "transfected cells remaining viable", "setting": "H1299_eGFP cells [3]; human, 20 h, 40 μM", "value": "~60", "unit": "%"},
      {"measurement": "Cells with diffuse FITC-dextran labeling", "setting": "H1299_WT cells [4]", "value": 26, "unit": "%"},
      {"measurement": "LipidTOX Red phospholipid signal", "setting": "H1299_WT cells [5]", "value": "upregulates the presence of phospholipids in a concentration dependent fashion"},
      {"measurement": "cellular granularity (SSC) at eGFP readout", "setting": "H1299_eGFP cells [6]; 40 μM, 2 h incubation", "value": "significant though minor augmentation"},
      {"measurement": "increase in SSC signal", "setting": "H1299_eGFP cells [6]; siNG transfection then 40 μM", "value": 1.8, "unit": "fold"}
    ]}
  ]
}
